Results on 25 molecules are retold here after patent US11384055B2 (BIOMARIN PHARMACEUTICAL INC., priority 2017, dated 2022).

The target of the test is T1, Human GO (Homo sapiens, UniProt Q9UJM8).
T1 construct: purchased Novus Biologicals NBP1-72412
T1 sequence (Q9UJM8 1-370): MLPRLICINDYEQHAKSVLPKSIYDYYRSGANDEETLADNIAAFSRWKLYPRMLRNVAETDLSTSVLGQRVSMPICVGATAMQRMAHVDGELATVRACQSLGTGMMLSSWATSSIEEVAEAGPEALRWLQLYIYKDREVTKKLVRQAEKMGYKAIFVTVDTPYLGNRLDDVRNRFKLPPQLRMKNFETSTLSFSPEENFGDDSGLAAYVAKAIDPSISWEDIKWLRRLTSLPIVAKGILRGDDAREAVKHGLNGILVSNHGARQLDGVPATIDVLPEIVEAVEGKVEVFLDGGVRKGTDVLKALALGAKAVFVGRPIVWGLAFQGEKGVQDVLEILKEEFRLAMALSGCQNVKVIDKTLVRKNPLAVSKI
As to the kind of experiment: GO enzymatic assay (coupled fluorescence/HRP assay, glycolate substrate). Type of test: biochemical. To be noted: Table 4; read-out: Range (range of IC50 values calculated from the enzymatic assays). The essentials: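 Coupled HRP/fluorescence read-out of glycolate oxidation by human GO in 50 mM potassium phosphate buffer (pH 7). Inhibitors added across a concentration range.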
As usually defined, the IC50 is the midpoint of a concentration-inhibition curve. For the molecule `O=C(O)c1[nH]nnc1O[C@H]1C[C@@H]2CN(c3ccc(Cl)c(Cl)c3)C[C@@H]2C1` [Compound 427, 4-(((3aR,5s,6aS)-2-(3,4-dichlorophenyl)octahydrocyclopenta[c]pyrrol-5-yl)oxy)-1H-1,2,3-triazole-5-carboxylic acid], the 50% inhibitory concentration (IC50) was below 100 nM.
As for `O=C(O)c1[nH]nnc1S[C@H]1C[C@@H]2CN(c3ccc(Cl)c(Cl)c3)C[C@@H]2C1` [Compound 428, 4-(((3aR,5s,6aS)-2-(3,4-dichlorophenyl)octahydrocyclopenta[c]pyrrol-5-yl)thio)-1H-1,2,3-triazole-5-carboxylic acid], the 50% inhibitory concentration (IC50) was below 100 nM.
As to `O=C(O)c1[nH]nnc1OC1CCN(c2cc(OC(F)(F)F)ccc2Cl)CC1` [Compound 429, 4-((1-(2-chloro-5-(trifluoromethoxy)phenyl)piperidin-4-yl)oxy)-1H-1,2,3-triazole-5-carboxylic acid], the half-inhibitory concentration (IC50) is below 100 nM.
As to `O=C(O)c1[nH]nnc1CSC1CCC2(CCCC2)CC1` [Compound 435, 4-((spiro[4.5]decan-8-ylthio)methyl)-1H-1,2,3-triazole-5-carboxylic acid], the IC50 was below 100 nM.
As for `N#CC1(c2ccc(OC(F)(F)F)cc2)CCC(Oc2nn[nH]c2C(=O)O)CC1` (stereo not shown) [Compound 437, 4-((4-cyano-4-(4-(trifluoromethoxy)phenyl)cyclohexyl)oxy)-1H-1,2,3-triazole-5-carboxylic acid], the half-maximal inhibitory concentration (IC50) was below 100 nM.
As to `COC1(c2ccc(OC(F)(F)F)cc2)CC(Oc2nn[nH]c2C(=O)O)C1` (stereo not shown) [Compound 440, 4-(3-methoxy-3-(4-(trifluoromethoxy)phenyl)cyclobutoxy)-1H-1,2,3-triazole-5-carboxylic acid], the IC50 is 100 to 1000 nM.
Turning to `O=C(O)c1[nH]nnc1S[C@H]1CC[C@@H](c2ccc(N3CCCCC3)c(Cl)c2)CC1` [Compound 442-1, 4-(((cis)-4-(3-chloro-4-(piperidin-1-yl)phenyl)cyclohexyl)thio)-1H-1,2,3-triazole-5-carboxylic acid 2,2,2-trifluoroacetate], the half-maximal inhibitory concentration (IC50) is below 100 nM.
Consider `O=C(O)c1[nH]nnc1S[C@H]1CC[C@H](c2ccc(N3CCCCC3)c(Cl)c2)CC1` [Compound 442-2, 4-(((trans)-4-(3-chloro-4-(piperidin-1-yl)phenyl)cyclohexyl)thio)-1H-1,2,3-triazole-5-carboxylic acid 2,2,2-trifluoroacetate], for which the IC50 was below 100 nM.
As for `C[C@]1(c2ccc(OC(F)(F)F)cc2)CC[C@H](Oc2nn[nH]c2C(=O)O)CC1` [Compound 443, 4-(((1r,4r)-4-methyl-4-(4-(trifluoromethoxy)phenyl)cyclohexyl)oxy)-1H-1,2,3-triazole-5-carboxylic acid], the IC50 was below 100 nM.
For `C[C@]1(c2ccc(OC(F)(F)F)cc2)CC[C@@H](Oc2nn[nH]c2C(=O)O)CC1` [Compound 444, 4-(((1s,4s)-4-methyl-4-(4-(trifluoromethoxy)phenyl)cyclohexyl)oxy)-1H-1,2,3-triazole-5-carboxylic acid], the IC50 is below 100 nM.
In the case of `O=C(O)c1[nH]nnc1O[C@H]1CC[C@H](c2ccc(OC3CC3)cc2)CC1` [Example 446, 4-(((trans)-4-(4-cyclopropoxyphenyl)cyclohexyl)oxy)-1H-1,2,3-triazole-5-carboxylic acid], the IC50 was below 100 nM.
On to `O=C(O)c1[nH]nnc1O[C@H]1CC[C@H](c2ccc(F)cc2)CC1` [Example 447, 4-(((trans)-4-(4-fluorophenyl)cyclohexyl)oxy)-1H-1,2,3-triazole-5-carboxylic acid], for which the IC50 is below 100 nM.
With `O=C(O)c1[nH]nnc1Oc1ccc(Cl)c(OC2CCC2)c1` [Example 448, 4-(4-chloro-3-cyclobutoxyphenoxy)-1H-1,2,3-triazole-5-carboxylic acid], the IC50 was below 100 nM.
As for `O=C(O)c1[nH]nnc1OC1CC(c2ccc(OC(F)(F)F)cc2)C1` (stereo not shown) [Example 449, 4-(3-(4-(trifluoromethoxy)phenyl)cyclobutoxy)-1H-1,2,3-triazole-5-carboxylic acid], the concentration for half-maximal inhibition (IC50) was below 100 nM.
For `O=C(O)c1[nH]nnc1Oc1ccc(-c2ccc(-n3cccn3)cc2)cc1` [Example 450, 4-((4′-(1H-pyrazol-1-yl)-[1,1′-biphenyl]-4-yl)oxy)-1H-1,2,3-triazole-5-carboxylic acid 2,2,2-trifluoroacetate] the value was below 100 nM.
On to `O=C(O)c1[nH]nnc1N[C@H]1CC[C@H](c2ccc(OC(F)(F)F)cc2)CC1` [Example 451, 4-(((trans)-4-(4-(trifluoromethoxy)phenyl)cyclohexyl)amino)-1H-1,2,3-triazole-5-carboxylic acid], for which the IC50 was below 100 nM.
Take `O=C(O)c1[nH]nnc1N[C@H]1CC[C@@H](c2ccc(OC(F)(F)F)cc2)CC1` [Example 452, 4-(((cis)-4-(4-(trifluoromethoxy)phenyl)cyclohexyl)amino)-1H-1,2,3-triazole-5-carboxylic acid]: the IC50 was below 100 nM.
`O=C(O)c1[nH]nnc1OC1CCC(O)(c2ccc(OC(F)(F)F)cc2)CC1` (stereo not shown) [Example 453, 4-((4-hydroxy-4-(4-(trifluoromethoxy)phenyl)cyclohexyl)oxy)-1H-1,2,3-triazole-5-carboxylic acid]: the 50% inhibitory concentration (IC50) is 100 to 1000 nM.
Consider `O=C(O)c1[nH]nnc1OC1CC=C(c2ccc(OC(F)(F)F)cc2)CC1` (stereo not shown) [Example 454, 4-((4′-(trifluoromethoxy)-2,3,4,5-tetrahydro-[1,1′-biphenyl]-4-yl)oxy)-1H-1,2,3-triazole-5-carboxylic acid], for which the half-inhibitory concentration (IC50) is below 100 nM.
Take `O=C(O)c1[nH]nnc1OC1C[C@@H]2CC(c3ccc(OC(F)(F)F)cc3)C[C@@H]2C1` (stereo partly drawn) [Example 455, 4-(((cis-3a,6a)-5-(4-(trifluoromethoxy)phenyl)octahydropentalen-2-yl)oxy)-1H-1,2,3-triazole-5-carboxylic acid]: the IC50 was below 100 nM.
For `O=C(O)c1[nH]nnc1CO[C@H]1CC[C@H](c2ccc(OC(F)(F)F)cc2)CC1` [Example 456, 4-((((trans)-4-(4-(trifluoromethoxy)phenyl)cyclohexyl)oxy)methyl)-1H-1,2,3-triazole-5-carboxylic acid], the 50% inhibitory concentration (IC50) was 100 to 1000 nM.
With `NS(=O)(=O)c1ccc([C@H]2CC[C@H](Oc3nn[nH]c3C(=O)O)CC2)cc1` [Example 457, 4-(((trans)-4-(4-sulfamoylphenyl)cyclohexyl)oxy)-1H-1,2,3-triazole-5-carboxylic acid], the IC50 is below 100 nM.
The result for `O=C(O)c1[nH]nnc1S[C@H]1CC[C@H](c2ccc(-n3cccn3)cc2)CC1` [Example 459, 4-(((trans)-4-(4-(1H-pyrazol-1-yl)phenyl)cyclohexyl)thio)-1H-1,2,3-triazole-5-carboxylic acid 2,2,2-trifluoroacetate] reads below 100 nM; that for `O=C(O)c1[nH]nnc1O[C@H]1CC[C@H](c2ccc(OCC3CCCCC3)cc2)CC1` [Example 460, 4-(((trans)-4-(4-(cyclohexylmethoxy)phenyl)cyclohexyl)oxy)-1H-1,2,3-triazole-5-carboxylic acid], below 100 nM.
Consider `O=C(O)c1[nH]nnc1SC1C[C@@H]2CC(c3ccc(OC(F)(F)F)cc3)C[C@@H]2C1` (stereo partly drawn) [Example 461, 4-(((cis-3a,6a)-5-(4-(trifluoromethoxy)phenyl)octahydropentalen-2-yl)thio)-1H-1,2,3-triazole-5-carboxylic acid], for which the IC50 is below 100 nM.
